Test results taken from US4038402A, “Method of effecting antihistaminic, antiserotonin and antiallergic actions” (priority 1974, dated 1977).

Tests used:
[1] = pharmacological activity in experiments on isolated organs and on intact animals (overall)
Method: (§1) The pharmacological activity of said compounds has been tested in various experiments in isolated organs and on intact narcotized and non-narcotizedanimals. The tests were aimed at establishing and quantitatively determining antihistaminic, antiserotonin, cholinolytic, and also broncholytic activity of the preparations. Moreover, the action of the preparations on increased permeability of the vessels, their antiexudative, antiallergic action were tested on guinea pigs, actively sensitized with ovalbumin with the administration of the antigen in the form of aerosol in effective doses. The effect of the preparations on the central nervous system, namely on the spontaneous motor activity, and also the interaction of the preparations with hypnotic and stimulating preparations, was tested.

[2] = tested on: ovalbumin; assay: anaphylactic reaction of guinea pigs sensitized with ovalbumin, aerosol of ovalbumin; assay type: in vivo; details: 30 mg/kg in the stomach
Method: as §1

[3] = tested on: histamine; assay: antihistaminic and antiallergic activity compared with known preparations; details: for certain experimental antihistaminic and antiallergic activity relative to known preparations: compared with dimedrol and diprasin-pipolfen
[4] = toxicity (LD50) on various laboratory animals; assay type: in vivo
Method: The toxicity (LD50) of the preparations was determined with various methods of administration (intravenous, subcutaneous, in the stomach) on various laboratory animals.

[5] = tested on: serotonin and histamine; assay: time course of action on bronchoconstriction by serotonin and histamine (Koncett-Rossler method); assay type: in vivo, guinea pigs; details: after intravenous injection
Source text: The broncheal muscle tone was examined in intact narcotized guinea pigs by the Koncett-Rossler method.

[6] = tested on: serotonin; details: 30 mg/kg in the stomach; serotonin aerosol
[7] = tested on: serotonin; details: known antagonist; cited from earlier work

OC(c1ccccc1)(C1CCCCC1)C1CN2CCC1CC2 (centres unmarked) [(phenyl)-(cyclohexyl)-(quinuclidyl- 3) -carbinol]
pharmacological activity [1]: high activity

OC(c1ccccc1)(c1cccs1)C1CN2CCC1CC2 (centres unmarked) [(phenyl)-(thienyl- 2')-(quinuclidyl- 3)carbinol]
pharmacological activity [1]: high activity

OC(c1cccs1)(c1cccs1)C1CN2CCC1CC2 (centres unmarked) [(quinuclidyl-3 )-di(thienyl- 2')-carbinol]
pharmacological activity [1]: high activity

COc1ccccc1C(O)(c1ccccc1OC)C1CN2CCC1CC2 (centres unmarked) [(quinuclidyl-3)-di(2'-methoxyphenyl)carbinol]
protection from anaphylactic reaction [2]: actively protects
certain experimental antihistaminic and antiallergic activity relative to known preparations [3]: superior

OC(c1ccccc1)(c1ccccc1)C1CN2CCC1CC2 (centres unmarked) [(quinuclidyl-3)-diphenylcarbinol]
pharmacological activity [1]: high activity
antihistaminic activity [3]: high antihistaminic activity
certain experimental antihistaminic and antiallergic activity relative to known preparations [3]: superior
times less toxic than dimedrol ([4]; given in the stomach): 1.5 times
times less toxic than dimedrol ([4]; given intravenously): 1.5 times

CN(C)CCOC(c1ccccc1)c1ccccc1 [Dimedrol]
onset of effect [5]: immediately
persistence of the antiserotonin action [6]: 4 to 6 h

CCN(CC)C(=O)[C@@H]1C=C2c3cccc4[nH]cc(c34)C[C@H]2N(C)C1 [LSD-25, diethylamide lysergic acid]
onset of effect [5]: immediately
activity as antagonist to serotonin [7]: one of the most active known antogonists to serotonin
